Assay results as given in ChEMBL document CHEMBL4602701 (J Med Chem, 2020).

Tests used:
[1] = target: T1, Steroid 17-alpha-hydroxylase/17,20 lyase (Homo sapiens, UniProt P05093); assay: Binding affinity to C-terminal 6-His-tagged human CYP17A1 expressed in Escherichia coli assessed as induction of type II binding spectral changes at 50 uM using 1 uM CYP17A1 by spectroscopy
T1 sequence (P05093 whole entry): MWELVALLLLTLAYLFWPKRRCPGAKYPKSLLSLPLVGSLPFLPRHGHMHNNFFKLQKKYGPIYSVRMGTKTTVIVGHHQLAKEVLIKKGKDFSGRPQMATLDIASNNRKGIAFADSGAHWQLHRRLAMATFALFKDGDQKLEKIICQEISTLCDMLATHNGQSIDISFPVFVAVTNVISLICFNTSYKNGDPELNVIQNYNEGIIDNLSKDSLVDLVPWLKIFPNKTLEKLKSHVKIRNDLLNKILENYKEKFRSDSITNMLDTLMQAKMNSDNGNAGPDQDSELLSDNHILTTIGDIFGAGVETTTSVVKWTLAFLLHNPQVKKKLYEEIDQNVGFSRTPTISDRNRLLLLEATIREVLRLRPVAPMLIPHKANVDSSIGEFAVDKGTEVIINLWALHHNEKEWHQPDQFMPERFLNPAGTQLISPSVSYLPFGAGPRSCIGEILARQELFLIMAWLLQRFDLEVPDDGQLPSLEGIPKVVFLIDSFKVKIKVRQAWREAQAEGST

[2] = target: T1, Steroid 17-alpha-hydroxylase/17,20 lyase; assay: Binding affinity to C-terminal 6-His-tagged human CYP17A1 expressed in Escherichia coli assessed as induction of spectral changes by measuring rate constant of first reaction at 20 uM using 2 uM CYP17A1 by spectroscopy
[3] = target: T1, Steroid 17-alpha-hydroxylase/17,20 lyase; assay: Binding affinity to C-terminal 6-His-tagged human CYP17A1 expressed in Escherichia coli assessed as induction of spectral changes by measuring rate constant of second reaction at 20 uM using 2 uM CYP17A1 by spectroscopy

CC(C)[C@](O)(c1ccc2cc(OC(F)F)c(OC(F)F)cc2c1)c1c[nH]nn1 [SEVITERONEL]
Activity [1]: Active
K [2]: 44 to 45 s⁻¹
K [3]: 1.9 s⁻¹
